Results: ChEMBL document CHEMBL5620384, “6-Regioisomeric 5,8-quinolinediones as potent CDC25 inhibitors against colorectal cancers” (Eur J Med Chem, 2023)
Activity calls are given as the source filed them. No cut-off for these calls is given here.

Legend:
MDA-MB-231 [1] = experiment: Cytotoxicity against human MDA-MB-231 cells assessed as growth inhibition after 72 hrs by MTS assay; type: functional, cell-based; settings: MDA-MB-231, 72 h
[2] = Cytotoxicity against human M10 cells assessed as growth inhibition after 72 hrs by MTS assay; type: toxicity, cell-based
HCT-116 [3] = experiment: Induction of apoptosis in human HCT-116 cells assessed as increase in number of cells at sub-G1 phase measured after 72 hrs by flow cytometry; type: functional, cell-based; settings: dose 1-4 µM
HCT-116 [4] = experiment: Induction of DNA damaging in human HCT-116 cells assessed as CDK1Y15 dephosphorylation at 2 uM measured upto 8 hrs by Western blot analysis; type: functional, cell-based
HCT-116 [5] = experiment: Induction of DNA damaging in human HCT-116 cells assessed as CHK1 phosphorylation at S345 at 2 uM measured upto 8 hrs by Western blot analysis; type: functional, cell-based
U-87 MG = experiment: Cytotoxicity against human U-87 MG cells assessed as cell survival measured at 2 uM after 72 hrs by MTS assay relative to control; type: functional, U-87MG ATCC; settings: read-out: Activity
[6] = Cytotoxicity against human HEL 299 cells assessed as growth inhibition after 72 hrs by MTS assay; type: toxicity, cell-based
HCT-116 [7] = experiment: Induction of DNA damaging in human HCT-116 cells assessed as RPA2 phosphorylation at S4/S8 at 2 uM measured upto 8 hrs by Western blot analysis; type: functional, cell-based
[8] = Cytotoxicity against human CCD-841CoN cells assessed as growth inhibition after 72 hrs by MTS assay; type: toxicity, cell-based
HCT-116 [9] = experiment: Induction of cell cycle arrest in human HCT-116 cells assessed as cells accumulation at S to G2 phase (T6-T8) at 2 uM measured upto 24 hrs by flow cytometry; type: functional, cell-based
DLD-1 [10] = experiment: Cytotoxicity against human DLD1 cells assessed as growth inhibition after 72 hrs by MTS assay; type: functional, cell-based; settings: DLD-1, 72 h
HCT-116 [11] = experiment: Induction of DNA damaging in human HCT-116 cells assessed as RPA2 phosphorylation at S33 at 2 uM measured upto 8 hrs by Western blot analysis; type: functional, cell-based
MDA-MB-231 [12] = experiment: Cytotoxicity against human MDA-MB-231 cells assessed as cell survival measured at 2 uM after 72 hrs by MTS assay relative to control; type: functional; settings: read-out: Activity
HCT-116 [13] = experiment: Suppression of histone H4 methylation at K20 (H4K20me1) in thymidine synchronized human HCT-116 cells at 2 uM measured upto 8 hrs by Western blot analysis; type: functional, cell-based
HCT-116 [14] = experiment: Induction of apoptosis in human HCT-116 cells assessed as decrease in MCL1 expression at 1 uM measured after 72 hrs by flow cytometry; type: functional, cell-based
HCT-116 [15] = experiment: Induction of cell cycle arrest in human HCT-116 cells assessed as cells accumulation at G2/M phase (T10-T24) at 2 uM measured upto 24 hrs by flow cytometry; type: functional, cell-based
HCT-116 [16] = experiment: Induction of DNA damaging in human HCT-116 cells assessed as KAP-1 phosphorylation at S824 at 2 uM measured upto 8 hrs by Western blot analysis; type: functional, cell-based
HCT-116 [17] = experiment: Effect on cell cycle progression in thymidine synchronized human HCT-116 cells assessed as suppression of CDK1 dephosphorylation in presence of colchicine at 2 uM by Western blot analysis; type: functional, cell-based
HCT-116 [18] = experiment: Induction of apoptosis in human HCT-116 cells assessed as reduction in number of cells at S phase at 1 uM measured after 72 hrs by flow cytometry; type: functional, cell-based
SW480 = experiment: Cytotoxicity against human SW480 cells assessed as cell survival measured at 2 uM after 72 hrs by MTS assay relative to control; type: functional; settings: read-out: Activity
HCT-116 [19] = experiment: Induction of apoptosis in human HCT-116 cells assessed as increase in caspase 9 at 1 uM measured after 72 hrs by flow cytometry; type: functional, cell-based
HCT-116 [20] = experiment: Induction of apoptosis in human HCT-116 cells assessed as increase in caspase 3 at 1 uM measured after 72 hrs by flow cytometry; type: functional, cell-based
HCT-116 [21] = experiment: Induction of DNA damaging in human HCT-116 cells assessed as CHK2 phosphorylation at T68 at 2 uM measured upto 8 hrs by Western blot analysis; type: functional, cell-based
HCT-116 [22] = experiment: Induction of apoptosis in human HCT-116 cells assessed as reduction in number of cells at G1 phase at 1 uM measured after 72 hrs by flow cytometry; type: functional, cell-based
HCT-116 [23] = experiment: Cytotoxicity against human HCT-116 cells assessed as cell survival measured at 2 uM after 72 hrs by MTS assay relative to control; type: functional; settings: read-out: Activity
MCF7 = experiment: Cytotoxicity against human MCF7 cells assessed as cell survival measured at 2 uM after 72 hrs by MTS assay relative to control; type: functional; settings: read-out: Activity
HCT-116 [24] = experiment: Induction of DNA damaging in human HCT-116 cells assessed as H4K20 methylation at 2 uM measured upto 8 hrs by Western blot analysis; type: functional, cell-based
HCT-116 [25] = experiment: Induction of apoptosis in human HCT-116 cells assessed as increase in caspase 8 at 1 uM measured after 72 hrs by flow cytometry; type: functional, cell-based
HCT-116 [26] = experiment: Effect on cell cycle progression in thymidine synchronized human HCT-116 cells assessed as prevention of cells entering from mitosis in presence of colchicine at 2 uM by Western blot analysis; type: functional, cell-based
HCT-116 [27] = experiment: Induction of apoptosis in human HCT-116 cells assessed as reduction in number of cells at G2/M phase at 1 uM measured after 72 hrs by flow cytometry; type: functional, cell-based
[28] = Cytotoxicity against human MRC5 cells assessed as growth inhibition after 72 hrs by MTS assay; type: toxicity, cell-based
DLD-1 [29] = experiment: Cytotoxicity against human DLD-1 cells assessed as cell survival measured at 2 uM after 72 hrs by MTS assay relative to control; type: functional; settings: read-out: Activity
DLD-1 [30] = experiment: Induction of cell cycle arrest in human DLD-1 cells assessed as reduced progression of S phase (T8) at 2 uM measured upto 24 hrs by flow cytometry; type: functional, cell-based
HCT-116 [31] = experiment: Effect on cell cycle progression in thymidine synchronized human HCT-116 cells assessed as increase in cyclin B1 phosphorylation in presence of 0.2 uM of colchicine at 2 uM by Western blot analysis; type: functional, cell-based
HCT-116 [32] = experiment: Effect on cell cycle progression in thymidine synchronized human HCT-116 cells assessed as increase in MPM2 phosphorylation in presence of 0.2 uM of colchicine at 2 uM by Western blot analysis; type: functional, cell-based
DLD-1 [33] = experiment: Induction of cell cycle arrest in human DLD-1 cells assessed as reduced progression of G2/M phase (T12) at 2 uM measured upto 24 hrs by flow cytometry; type: functional, cell-based
HCT-116 [34] = experiment: Effect on cell cycle progression in thymidine synchronized human HCT-116 cells assessed as increase in histone H3 phosphorylation in presence of 0.2 uM of colchicine at 2 uM by Western blot analysis; type: functional, cell-based
HCT-116 [35] = experiment: Reduction in mitotic exit in human HCT-116 cells at 2 uM measured upto 24 hrs by flow cytometry; type: functional, cell-based

SMILES	IC50 (MDA-MB-231 [1])	viability at 2 µM (U-87 MG)	IC50 (DLD-1 [10])	viability at 2 µM (MDA-MB-231 [12])	Activity (HCT-116 [18])	viability at 2 µM (SW480)	Activity (HCT-116 [22])	viability at 2 µM (HCT-116 [23])	viability at 2 µM (MCF7)	Activity (HCT-116 [26])	Activity (HCT-116 [27])	viability at 2 µM (DLD-1 [29])	Activity (DLD-1 [30])	also measured
O=C1C(NCCN2CCOCC2)=C(Cl)C(=O)c2ncccc21	440 nM	28%	590 nM	93.2%	Active	16.7%	Active	0.85%	36.3%	Active	Active	1.86%	Active	IC50 at 72 h [2]: > 2000 nM; Activity (HCT-116 [3]): Dose-Dependent Effect; Activity (HCT-116 [4]): Active; Activity (HCT-116 [5]): Active; IC50 at 72 h [6]: > 2000 nM; Activity (HCT-116 [7]): Active; IC50 at 72 h [8]: > 2000 nM; Activity (HCT-116 [9]): Active; Activity (HCT-116 [11]): Active; Activity (HCT-116 [13]): Active; Activity (HCT-116 [14]): Active; Activity (HCT-116 [15]): Active; Activity (HCT-116 [16]): Active; Activity (HCT-116 [17]): Active; Activity (HCT-116 [19]): Active; Activity (HCT-116 [20]): Active; Activity (HCT-116 [21]): Active; Activity (HCT-116 [24]): Active; Activity (HCT-116 [25]): Active; IC50 at 72 h [28]: > 2000 nM
O=C1C(Cl)=C(NCCN2CCOCC2)C(=O)c2ncccc21	> 2000 nM	82%	> 2000 nM	94.4%	inactive	93.9%	inactive	61.8%	79.6%	Active	inactive	82%	Active	Activity (HCT-116 [31]): Active; Activity (HCT-116 [32]): Active; Activity (DLD-1 [33]): Active; Activity (HCT-116 [34]): Active; Activity (HCT-116 [35]): Active
